# Laboratory results published in patent US12668585B2, “Substituted pyrimidinyl-pyrazoles as CDK2 inhibitors” (BLUEPRINT MEDICINES CORPORATION, priority 2021, dated 2026).
# Like-named read-outs stand apart in the source and are kept apart here.
# Assays:
# [1] = biological target: T1, CDK2/Cyclin E (Homo sapiens, UniProt P24941); assay: Biochemical CDK inhibition assay (Caliper mobility shift), CDK2/Cyclin E; details: read-out: CDK2/cyclin E1 IC50
# T1 construct: purchased Eurofins 14-475
# Procedure: (§1) Inhibitory effects of the compounds of the disclosure were measured in biochemical assays that measure the enzymatic phosphorylation activity of CDK enzyme in complex of Cyclin proteins phosphorylates 7.5 micromolar fluorescently labelled peptide substrate, 5-FAM-QSPKKG-CONH2, (FL-Peptide 18, Perkin Elmer, 760362) in the presence of adenosine-5′-triphosphate (ATP) and varying concentrations of the test compound in 100 mM 2-[4-(2-hydroxyethyl)piperazin-1-yl] ethanesulfonic acid (HEPES), pH 7.5, 10 mM MgCl2, 0.015% Brij-35, 1 mM dithiothreitol (DTT), 1.0% dimehylsulfoxide (DMSO). […] Reactions proceeded until between 10% to 20% total peptides were phosphorylated at room temperature (25° C.) and were terminated with 35 mM 2,2′,2″,2′″-(ethane-1,2-diyldinitrilo)tetraacetic acid (EDTA). Product was detected using the Caliper mobility shift detection method where the phosphorylated peptide (product) and substrate were electrophoretically separated and measured. Percent activity was plotted against log concentration of compound and points to generate an apparent IC50. The following CDK enzymes in complex with different cyclin proteins were used in these assays: • CDK1/Cyclin B1, GST-tag (BPS, 40454), 1.5 nM used in the assay • CDK2/Cyclin E (Eurofins, 14-475), 1.25 nM used in the assays
# (§2) For inhibitory activity against CDK2/Cyclin E mutant, the following designations are used: ≤10 nM=A; >10-20 nM=B; >20-30 nM=C; >30-100 nM=D and >100=E. For inhibition CDK1/Cyclin B1, GST-tag: ≥500 nM=A; <100-500 nM=B; <100 nM=C.
# [2] = biological target: T2, CDK1/Cyclin B1, GST-tag (Homo sapiens, UniProt P06493); assay: Biochemical CDK inhibition assay (Caliper mobility shift), CDK1/Cyclin B1
# T2 construct: GST; purchased BPS 40454
# T2 sequence (P06493 whole entry): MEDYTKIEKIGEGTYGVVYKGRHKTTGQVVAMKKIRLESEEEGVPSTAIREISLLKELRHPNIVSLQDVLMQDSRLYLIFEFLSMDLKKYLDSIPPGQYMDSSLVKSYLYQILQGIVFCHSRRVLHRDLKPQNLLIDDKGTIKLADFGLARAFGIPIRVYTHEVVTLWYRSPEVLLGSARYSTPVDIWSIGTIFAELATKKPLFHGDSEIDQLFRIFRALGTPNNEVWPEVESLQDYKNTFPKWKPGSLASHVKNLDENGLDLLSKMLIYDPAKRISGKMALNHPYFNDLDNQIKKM
# T2 sequence (P14635 whole entry partner): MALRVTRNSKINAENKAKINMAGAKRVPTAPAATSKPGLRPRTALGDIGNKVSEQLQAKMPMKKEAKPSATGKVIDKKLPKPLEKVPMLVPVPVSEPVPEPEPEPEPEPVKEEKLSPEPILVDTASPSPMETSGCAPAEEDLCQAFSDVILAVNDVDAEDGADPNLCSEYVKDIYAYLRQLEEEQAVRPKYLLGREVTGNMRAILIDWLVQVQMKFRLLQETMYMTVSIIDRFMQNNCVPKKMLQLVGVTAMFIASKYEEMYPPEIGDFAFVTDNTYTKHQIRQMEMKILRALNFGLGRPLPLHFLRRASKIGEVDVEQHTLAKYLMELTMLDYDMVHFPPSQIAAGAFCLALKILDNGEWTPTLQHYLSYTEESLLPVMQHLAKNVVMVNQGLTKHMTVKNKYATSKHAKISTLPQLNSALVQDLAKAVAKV
# Procedure: as §1, §2
Compound,"IC50 ([1]; apparent IC50, 1.25 nM enzyme, 1.0 mM ATP or ATP Km, 7.5 micromolar FL-Peptide 18, 25° C.) [nM]","IC50 ([2]; apparent IC50, 1.5 nM enzyme, 1.0 mM ATP or ATP Km, 7.5 micromolar FL-Peptide 18, 25° C.) [nM]",IC50 [1] [nM],IC50 [2] [nM]
3-fluoro-4-((4-(1-(2-hydroxyethyl)-1H-pyrazol-4-yl)-5-(trifluoromethyl)pyrimidin-2-yl)amino)benzenesulfonamide or 3-fluoro-4-((2-(1-(2-hydroxyethyl)-1H-pyrazol-4-yl)-5-(trifluoromethyl)pyrimidin-4-yl)amino)benzenesulfonamide [Example 33],10 to 20,≥ 500,,
"C[C@H](n1cc(-c2nc(Nc3ccc(S(N)(=O)=O)cc3F)ncc2C(F)(F)F)cn1)C(C)(C)O (single isomer, unassigned) [Example 6, (S)-3-fluoro-4-((4-(1-(3-hydroxy-3-methylbutan-2-yl)-1H-pyrazol-4-yl)-5-(trifluoromethyl)pyrimidin-2-yl)amino)benzenesulfonamide or (R)-3-fluoro-4-((4-(1-(3-hydroxy-3-methylbutan-2-yl)-1H-pyrazol-4-yl)-5-(trifluoromethyl)pyrimidin-2-yl)amino)benzenesulfonamide]",,,≤ 10,< 100
"C[C@@H](n1cc(-c2nc(Nc3ccc(S(N)(=O)=O)cc3F)ncc2C(F)(F)F)cn1)C(C)(C)O (single isomer, unassigned) [Example 7, (R)-3-fluoro-4-((4-(1-(3-hydroxy-3-methylbutan-2-yl)-1H-pyrazol-4-yl)-5-(trifluoromethyl)pyrimidin-2-yl)amino)benzenesulfonamide or (S)-3-fluoro-4-((4-(1-(3-hydroxy-3-methylbutan-2-yl)-1H-pyrazol-4-yl)-5-(trifluoromethyl)pyrimidin-2-yl)amino)benzenesulfonamide]",,,≤ 10,100 to 500
"C[C@H](O)[C@H](C)n1cc(-c2nc(Nc3ccc(S(N)(=O)=O)cc3F)ncc2C(F)(F)F)cn1 (single isomer, unassigned) [Example 9]",,,≤ 10,100 to 500
"C[C@@H](O)[C@H](C)n1cc(-c2nc(Nc3ccc(S(N)(=O)=O)cc3F)ncc2C(F)(F)F)cn1 (single isomer, unassigned) [Example 13]",,,≤ 10,100 to 500
"C[C@H](O)[C@@H](C)n1cc(-c2nc(Nc3ccc(S(N)(=O)=O)cc3F)ncc2C(F)(F)F)cn1 (single isomer, unassigned) [Example 15]",,,≤ 10,100 to 500
"C[C@H]([C@@H](C)O)n1cc(-c2nc(Nc3ccc(S(N)(=O)=O)cc3F)ncc2C(F)(F)F)cn1 (single isomer, unassigned) [Example 25]",,,≤ 10,100 to 500
"Cc1cc(S(N)(=O)=O)ccc1Nc1ncc(C(F)(F)F)c(-c2cnn(CC(C)(C)O)c2)n1 [Example 2, 4-((4-(1-(2-hydroxy-2-methylpropyl)-1H-pyrazol-4-yl)-5-(trifluoromethyl)pyrimidin-2-yl)amino)-3-methylbenzenesulfonamide]",,,≤ 10,100 to 500
"CC(C)(O)Cn1cc(-c2nc(Nc3ccc(S(N)(=O)=O)cc3)ncc2Cl)cn1 [Example 3, 4-((5-chloro-4-(1-(2-hydroxy-2-methylpropyl)-1H-pyrazol-4-yl)pyrimidin-2-yl)amino)benzenesulfonamide]",,,≤ 10,< 100
"CC(C)(O)Cn1cc(-c2nc(Nc3ccc(S(N)(=O)=O)cc3)ncc2C(F)F)cn1 [Example 4, 4-((5-(difluoromethyl)-4-(1-(2-hydroxy-2-methylpropyl)-1H-pyrazol-4-yl)pyrimidin-2-yl)amino)benzenesulfonamide]",,,≤ 10,< 100
"CC(C)(O)Cn1cc(-c2nc(Nc3ccc(S(N)(=O)=O)cc3)ncc2C(F)(F)F)cn1 [Example 5, 4-((4-(1-(2-hydroxy-2-methylpropyl)-1H-pyrazol-4-yl)-5-(trifluoromethyl)pyrimidin-2-yl)amino)benzenesulfonamide]",,,≤ 10,< 100
"CC(C)(O)Cn1cc(-c2nc(Nc3ccc(S(N)(=O)=O)cc3)ncc2C#N)cn1 [Example 8, 4-((5-cyano-4-(1-(2-hydroxy-2-methylpropyl)-1H-pyrazol-4-yl)pyrimidin-2-yl)amino)benzenesulfonamide]",,,≤ 10,< 100
"CC(C)(O)Cn1cc(-c2nc(Nc3ccc(S(N)(=O)=O)cc3F)ncc2C(F)F)cn1 [Example 11, 4-((5-(difluoromethyl)-4-(1-(2-hydroxy-2-methylpropyl)-1H-pyrazol-4-yl)pyrimidin-2-yl)amino)-3-fluorobenzenesulfonamide]",,,≤ 10,100 to 500
Cc1cc(S(N)(=O)=O)ccc1Nc1ncc(Cl)c(-c2cnn(CC(C)(C)O)c2)n1 [Example 14],,,≤ 10,< 100
"NS(=O)(=O)c1ccc(Nc2ncc(C(F)(F)F)c(-c3cnn(C4(CO)CC4)c3)n2)c(F)c1 [Example 16, 3-fluoro-4-((4-(1-(1-(hydroxymethyl)cyclopropyl)-1H-pyrazol-4-yl)-5-(trifluoromethyl)pyrimidin-2-yl)amino)benzenesulfonamide]",,,≤ 10,100 to 500
"Cc1cnc(Nc2ccc(S(N)(=O)=O)cc2)nc1-c1cnn(CC(C)(C)O)c1 [Example 17, 4-((4-(1-(2-hydroxy-2-methylpropyl)-1H-pyrazol-4-yl)-5-methylpyrimidin-2-yl)amino)benzenesulfonamide]",,,≤ 10,100 to 500
"CC(C)(O)Cn1cc(-c2nc(Nc3ccc(S(N)(=O)=O)cc3)ncc2F)cn1 [Example 18, 4-((5-fluoro-4-(1-(2-hydroxy-2-methylpropyl)-1H-pyrazol-4-yl)pyrimidin-2-yl)amino)benzenesulfonamide]",,,≤ 10,< 100
"CC(C)(O)Cn1cc(-c2nc(Nc3ccc(S(N)(=O)=O)cc3F)ncc2C#N)cn1 [Example 19, 4-((5-cyano-4-(1-(2-hydroxy-2-methylpropyl)-1H-pyrazol-4-yl)pyrimidin-2-yl)amino)-3-fluorobenzenesulfonamide]",,,≤ 10,100 to 500
"C[C@@H](O)Cn1cc(-c2nc(Nc3ccc(S(N)(=O)=O)cc3F)ncc2C(F)(F)F)cn1 [Example 20, (R)-3-fluoro-4-((4-(1-(2-hydroxypropyl)-1H-pyrazol-4-yl)-5-(trifluoromethyl)pyrimidin-2-yl)amino)benzenesulfonamide]",,,≤ 10,100 to 500
"Cc1c(S(N)(=O)=O)ccc(Nc2ncc(C(F)(F)F)c(-c3cnn(CC(C)(C)O)c3)n2)c1F [Example 21, 3-fluoro-4-((4-(1-(2-hydroxy-2-methylpropyl)-1H-pyrazol-4-yl)-5-(trifluoromethyl)pyrimidin-2-yl)amino)-2-methylbenzenesulfonamide]",,,≤ 10,100 to 500
"CC(C)(CO)n1cc(-c2nc(Nc3ccc(S(N)(=O)=O)cc3F)ncc2C(F)(F)F)cn1 [Example 22, 3-fluoro-4-((4-(1-(1-hydroxy-2-methylpropan-2-yl)-1H-pyrazol-4-yl)-5-(trifluoromethyl)pyrimidin-2-yl)amino)benzenesulfonamide]",,,≤ 10,100 to 500
"CC(C)(O)Cn1cc(-c2nc(Nc3ccc(S(N)(=O)=O)cc3Cl)ncc2Cl)cn1 [Example 23, 3-chloro-4-((5-chloro-4-(1-(2-hydroxy-2-methylpropyl)-1H-pyrazol-4-yl)pyrimidin-2-yl)amino)benzenesulfonamide]",,,≤ 10,100 to 500
"CCc1cnc(Nc2ccc(S(N)(=O)=O)cc2)nc1-c1cnn(CC(C)(C)O)c1 [Example 24, 4-((5-ethyl-4-(1-(2-hydroxy-2-methylpropyl)-1H-pyrazol-4-yl)pyrimidin-2-yl)amino)benzenesulfonamide]",,,≤ 10,100 to 500
"COc1cc(S(N)(=O)=O)ccc1Nc1ncc(C(F)(F)F)c(-c2cnn(CC(C)(C)O)c2)n1 [Example 27, 4-((4-(1-(2-hydroxy-2-methylpropyl)-1H-pyrazol-4-yl)-5-(trifluoromethyl)pyrimidin-2-yl)amino)-3-methoxybenzenesulfonamide]",,,≤ 10,100 to 500
"COc1cc(S(N)(=O)=O)ccc1Nc1ncc(Cl)c(-c2cnn(CC(C)(C)O)c2)n1 [Example 28, 4-((5-chloro-4-(1-(2-hydroxy-2-methylpropyl)-1H-pyrazol-4-yl)pyrimidin-2-yl)amino)-3-methoxybenzenesulfonamide]",,,≤ 10,100 to 500
"CC(C)(O)Cn1cc(-c2nc(Nc3ccc(S(N)(=O)=O)cc3F)ncc2F)cn1 [Example 30, 3-fluoro-4-((5-fluoro-4-(1-(2-hydroxy-2-methylpropyl)-1H-pyrazol-4-yl)pyrimidin-2-yl)amino)benzenesulfonamide]",,,≤ 10,100 to 500
"Cc1cc(S(N)(=O)=O)ccc1Nc1ncc(F)c(-c2cnn(CC(C)(C)O)c2)n1 [Example 31, 4-((5-fluoro-4-(1-(2-hydroxy-2-methylpropyl)-1H-pyrazol-4-yl)pyrimidin-2-yl)amino)-3-methylbenzenesulfonamide]",,,≤ 10,100 to 500
